Measured values taken from US11518788B2, “Methods and compositions for treating and preventing viral infection” (priority 2020, dated 2022).

Assays:
SARS-CoV-2 pseudovirus = type: cell-based
SARS-CoV pseudovirus = type: cell-based

With ACE2-Fc the “inhibition of SARS-CoV-2 pseudovirus entry” value (SARS-CoV-2 pseudovirus) was “inhibited”, the “percent infection of SARS-CoV-2 pseudovirus particles” value (SARS-CoV-2 pseudovirus) was “reduced percent infection” and the “inhibition of SARS-CoV pseudovirus entry” value (SARS-CoV pseudovirus) was “inhibited”.

heparin [reference compound] was tested, and the “efficiency of inhibition of SARS-CoV-2 compared with SARS-CoV and MERS CoV” value (SARS-CoV-2 pseudovirus) was “more efficiently than it does for SARS-CoV and MERS CoV”.
